Experimental data: PubChem BioAssay AID1963836 (Molecular Pharmacology Branch, DTP, NCI, 2024)

Tested on: 857933-349-R-J2-PDC complex spheroid viability
Experiment: Anticancer human tumor 857933-349-R-J2-PDC patient-derived colon adenocarcinoma cell line growth inhibition [POLQ]
Details: for IC50: curve of first compound; for viability, T/C: stronger effect = lower value
How it was run: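 Complex spheroid viability model combining PDC tumour cells with endothelial (HUVEC) and MSC stromal cells. Novobiocin, ART-558 or RP6685 were tested singly and in combination with standard and investigational anticancer drugs. Each was titrated in half-log steps from near clinical Cmax, or from 10 microM where Cmax was unknown.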

[1] = second compound 0.0316 µM, first compound 0.0316 µM
[2] = second compound 0.0316 µM, first compound 0.1 µM
[3] = second compound 0.0316 µM, first compound 0.316 µM
[4] = second compound 0.0316 µM, first compound 1 µM
[5] = second compound 0.0316 µM, first compound 3.16 µM
[6] = second compound 0.0316 µM, first compound 10 µM
[7] = second compound 0.1 µM, first compound 0.0316 µM
[8] = second compound 0.1 µM, first compound 0.1 µM
[9] = second compound 0.1 µM, first compound 0.316 µM
[10] = second compound 0.1 µM, first compound 1 µM
[11] = second compound 0.1 µM, first compound 3.16 µM
[12] = second compound 0.1 µM, first compound 10 µM
[13] = second compound 0.316 µM, first compound 0.0316 µM
[14] = second compound 0.316 µM, first compound 0.1 µM
[15] = second compound 0.316 µM, first compound 0.316 µM
[16] = second compound 0.316 µM, first compound 1 µM
[17] = second compound 0.316 µM, first compound 3.16 µM
[18] = second compound 0.316 µM, first compound 10 µM
[19] = second compound 1 µM, first compound 0.0316 µM
[20] = second compound 1 µM, first compound 0.1 µM
[21] = second compound 1 µM, first compound 0.316 µM
[22] = second compound 1 µM, first compound 1 µM
[23] = second compound 1 µM, first compound 3.16 µM
[24] = second compound 1 µM, first compound 10 µM
[25] = second compound 3.16 µM, first compound 0.0316 µM
[26] = second compound 3.16 µM, first compound 0.1 µM
[27] = second compound 3.16 µM, first compound 0.316 µM
[28] = second compound 3.16 µM, first compound 1 µM
[29] = second compound 3.16 µM, first compound 3.16 µM
[30] = second compound 3.16 µM, first compound 10 µM
[31] = second compound 10 µM, first compound 0.0316 µM
[32] = second compound 10 µM, first compound 0.1 µM
[33] = second compound 10 µM, first compound 0.316 µM
[34] = second compound 10 µM, first compound 1 µM
[35] = second compound 10 µM, first compound 3.16 µM
[36] = second compound 10 µM, first compound 10 µM
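Note: spheroids exposed to compounds for seven days before readout.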

C#Cc1c(F)ccc2cc(O)cc(-c3ncc4c(N5CC6CCC(C5)N6)nc(OCC56CCCN5CC(F)C6)nc4c3F)c12 (stereo not drawn) + Cc1cccc(N(C)C(=O)C2C(O)CCN2c2nc(C)cc(C(F)(F)F)c2C#N)c1
IC50 (second compound 0.0316 µM): > 10 µM
IC50 (second compound 0.1 µM): > 10 µM
IC50 (second compound 0.316 µM): > 10 µM
IC50 (second compound 1 µM): > 10 µM
IC50 (second compound 3.16 µM): > 10 µM
IC50 (second compound 10 µM): > 10 µM
viability, T/C [1]: 91.7%
viability, T/C [2]: 105%
viability, T/C [3]: 101%
viability, T/C [4]: 89.2%
viability, T/C [5]: 89.4%
viability, T/C [6]: 82.8%
viability, T/C [7]: 107%
viability, T/C [8]: 97.8%
viability, T/C [9]: 96.3%
viability, T/C [10]: 76.8%
viability, T/C [11]: 89.2%
viability, T/C [12]: 74.2%
viability, T/C [13]: 101%
viability, T/C [14]: 110%
viability, T/C [15]: 103%
viability, T/C [16]: 80.3%
viability, T/C [17]: 96.1%
viability, T/C [18]: 91.4%
viability, T/C [19]: 87%
viability, T/C [20]: 87.1%
viability, T/C [21]: 85.6%
viability, T/C [22]: 87.5%
viability, T/C [23]: 91%
viability, T/C [24]: 87.6%
viability, T/C [25]: 97.7%
viability, T/C [26]: 90.2%
viability, T/C [27]: 85.9%
viability, T/C [28]: 90.8%
viability, T/C [29]: 101%
viability, T/C [30]: 84.2%
viability, T/C [31]: 80.8%
viability, T/C [32]: 86.9%
viability, T/C [33]: 91%
viability, T/C [34]: 75.1%
viability, T/C [35]: 90.9%
viability, T/C [36]: 81.3%

CC1COCCN1c1cc(C2(O)CC3CCC(C2)O3)c2cnn(-c3ccn[nH]3)c2n1 (stereo not drawn) + Cc1cccc(N(C)C(=O)C2C(O)CCN2c2nc(C)cc(C(F)(F)F)c2C#N)c1
IC50 (second compound 0.0316 µM): 0.247 µM
IC50 (second compound 0.1 µM): 0.365 µM
IC50 (second compound 0.316 µM): 0.291 µM
IC50 (second compound 1 µM): 0.202 µM
IC50 (second compound 3.16 µM): 0.268 µM
IC50 (second compound 10 µM): 0.231 µM
viability, T/C [1]: 73.2%
viability, T/C [2]: 56.1%
viability, T/C [3]: 50.3%
viability, T/C [4]: 41.7%
viability, T/C [5]: 42.7%
viability, T/C [6]: 43.6%
viability, T/C [7]: 60.5%
viability, T/C [8]: 62.9%
viability, T/C [9]: 50.1%
viability, T/C [10]: 38.3%
viability, T/C [11]: 50.1%
viability, T/C [12]: 59.1%
viability, T/C [13]: 76.4%
viability, T/C [14]: 69.9%
viability, T/C [15]: 48.4%
viability, T/C [16]: 45.9%
viability, T/C [17]: 41.3%
viability, T/C [18]: 48.7%
viability, T/C [19]: 67.1%
viability, T/C [20]: 59.5%
viability, T/C [21]: 38.4%
viability, T/C [22]: 43.4%
viability, T/C [23]: 46.6%
viability, T/C [24]: 47.5%
viability, T/C [25]: 60.5%
viability, T/C [26]: 62.5%
viability, T/C [27]: 47.6%
viability, T/C [28]: 41.1%
viability, T/C [29]: 54.4%
viability, T/C [30]: 49.3%
viability, T/C [31]: 56.3%
viability, T/C [32]: 55.9%
viability, T/C [33]: 50.5%
viability, T/C [34]: 36.9%
viability, T/C [35]: 51.7%
viability, T/C [36]: 40.1%

CCc1cc2c(N3CCc4c(cc(Cn5ccnc5)cc4-c4cn(C)nc4C(F)(F)F)C3=O)cc(C)nc2c(OC)n1 + Cc1cccc(N(C)C(=O)C2C(O)CCN2c2nc(C)cc(C(F)(F)F)c2C#N)c1
IC50 (second compound 0.0316 µM): > 10 µM
IC50 (second compound 0.1 µM): > 10 µM
IC50 (second compound 0.316 µM): > 10 µM
IC50 (second compound 1 µM): > 10 µM
IC50 (second compound 3.16 µM): > 10 µM
IC50 (second compound 10 µM): > 10 µM
viability, T/C [1]: 106%
viability, T/C [2]: 93.2%
viability, T/C [3]: 99%
viability, T/C [4]: 79.9%
viability, T/C [5]: 75.1%
viability, T/C [6]: 62.3%
viability, T/C [7]: 106%
viability, T/C [8]: 103%
viability, T/C [9]: 78.5%
viability, T/C [10]: 82%
viability, T/C [11]: 77.6%
viability, T/C [12]: 68.8%
viability, T/C [13]: 100%
viability, T/C [14]: 89.6%
viability, T/C [15]: 83.5%
viability, T/C [16]: 82.8%
viability, T/C [17]: 80.3%
viability, T/C [18]: 61.6%
viability, T/C [19]: 99.6%
viability, T/C [20]: 83%
viability, T/C [21]: 86.3%
viability, T/C [22]: 85.2%
viability, T/C [23]: 73.8%
viability, T/C [24]: 61.9%
viability, T/C [25]: 107%
viability, T/C [26]: 91.3%
viability, T/C [27]: 82.7%
viability, T/C [28]: 77.8%
viability, T/C [29]: 60.2%
viability, T/C [30]: 55.1%
viability, T/C [31]: 95.4%
viability, T/C [32]: 99.9%
viability, T/C [33]: 92.5%
viability, T/C [34]: 72.6%
viability, T/C [35]: 67.6%
viability, T/C [36]: 62.8%

O=C(Nc1ccc(O)c(NS(=O)(=O)c2ccc(F)cc2)c1)c1ccc(-c2ccccc2)cc1 + Cc1cccc(N(C)C(=O)C2C(O)CCN2c2nc(C)cc(C(F)(F)F)c2C#N)c1
IC50 (second compound 0.0316 µM): > 10 µM
IC50 (second compound 0.1 µM): > 10 µM
IC50 (second compound 0.316 µM): > 10 µM
IC50 (second compound 1 µM): > 10 µM
IC50 (second compound 3.16 µM): > 10 µM
IC50 (second compound 10 µM): > 10 µM
viability, T/C [1]: 90.2%
viability, T/C [2]: 85.2%
viability, T/C [3]: 88.2%
viability, T/C [4]: 90.6%
viability, T/C [5]: 90.3%
viability, T/C [6]: 92.5%
viability, T/C [7]: 97.7%
viability, T/C [8]: 86.2%
viability, T/C [9]: 87%
viability, T/C [10]: 97.5%
viability, T/C [11]: 91.9%
viability, T/C [12]: 90.8%
viability, T/C [13]: 97.7%
viability, T/C [14]: 85.5%
viability, T/C [15]: 97.8%
viability, T/C [16]: 93.4%
viability, T/C [17]: 88.9%
viability, T/C [18]: 70.8%
viability, T/C [19]: 99.1%
viability, T/C [20]: 82%
viability, T/C [21]: 96.8%
viability, T/C [22]: 95.4%
viability, T/C [23]: 114%
viability, T/C [24]: 93%
viability, T/C [25]: 97.9%
viability, T/C [26]: 95.9%
viability, T/C [27]: 97.6%
viability, T/C [28]: 93.4%
viability, T/C [29]: 96.8%
viability, T/C [30]: 77.7%
viability, T/C [31]: 95.3%
viability, T/C [32]: 105%
viability, T/C [33]: 91%
viability, T/C [34]: 90%
viability, T/C [35]: 88.6%
viability, T/C [36]: 73.8%
